Source: paper PMC4471902, “Block of NMDA receptor channels by endogenous neurosteroids: implications for the agonist induced conformational states of the channel vestibule” (Scientific Reports, 2015)
Where “and” joins values, the source holds several entries; their conditions need not be identical. Identical values can stand only once. Counter-ions that a name gives are not always drawn. Like-named read-outs stand apart in the source and are kept apart here.

How the values were obtained:
Format in all cases: cell-based
[1] = test system: mutated GluN1/GluN2B receptors; assay: PA-S sensitivity of NMDARs mutated in the M1 and M3 regions of GluN1 and GluN2B (HEK293 cells)
Source text: (§1) Human embryonic kidney (HEK293) cells were transfected with expression vectors containing: GluN1–1a (GenBank accession number U08261)[52]; GluN2B (GenBank accession number M91562); GluN1-4a(F484A), (generous gift from Dr. J. J. Woodward)[53] (Smothers & Woodward, 2009); GluN3A (generous gift from Dr. S. A. Lipton)[54] (GenBank accession number NM_138546); GluN1ΔN with deleted 354 amino acids in the NTD (32 to 386); GluN1ΔC with an introduced stop codon in 838 of the CTD GluN2BΔN) with deleted 354 amino acids in the NTD (32 to 386); GluN2BΔC with an introduced stop codon in 844 of the CTD[55]; GluR0 (GenBank accession number Synechocystis PCC 6803) (generous gift from Dr. M. L. Mayer)[18]; and green fluorescent protein (GFP) (pQBI 25, Takara, Tokyo, Japan) genes, as described previously. The Quick-Change site-directed mutagenesis kit (Agilent Technologies, Santa Clara, CA, USA) was used to generate specific point mutations in the M1/M3 region according to the manufacturer’s instructions using manually designed primers purchased from Sigma. Modified DNA plasmids were transformed into competent XL10-Gold E.coli cells, positive clones were selected, and isolated DNA was sequenced. […] All mutations were verified by DNA sequencing (Macrogen, Seoul, Korea or SeQme, Dobris, Czech Republic). The amino acids are numbered according to the full-length protein, including the signal peptide, with the initiating methionine as 1.
(§2) Experiments were performed 24–48 hrs after transfection on cells transfected with GluN1/GluN2B/GFP plasmids. Whole-cell voltage-clamp recordings from HEK293 cells were made with a patch-clamp amplifier (Axopatch 200B; Axon Instruments, Inc., Foster City, CA) after a capacitance and series resistance (<10 MΩ) compensation of 80–90%.
Patch pipettes (3–5 MΩ) were filled with a solution containing (in mM): 120 gluconic acid, 15 CsCl, 10 BAPTA, 10 HEPES, 3 MgCl2, 1 CaCl2, and 2 ATP-Mg salt (pH-adjusted to 7.2 with CsOH). When GluR0 receptor responses were studied, intracellular solution contained (in mM): 120 gluconic acid, 15 KCl, 10 BAPTA, 10 HEPES, 3 MgCl2, 1 CaCl2, and 2 ATP-Mg salt (pH-adjusted to 7.2 with KOH). Extracellular solution (ECS) contained the following (in mM): 160 NaCl, 2.5 KCl, 10 HEPES, 10 glucose, 0.2 EDTA, and 0.7 CaCl2 (pH-adjusted to 7.3 with NaOH). Glycine (10 μM), an NMDAR co-agonist, was present in the control and test solutions. All (PA-S and PA-A) solutions were made from freshly prepared 20 mM PA-S and 5 mM PA-A stock in dimethyl sulfoxide (DMSO). The final dilution to ECS was made at 50 °C and followed by 1 min sonication (SONOREX DIGITEC DT 100/H, BADELIN electronic, Berlin, Germany). The same concentration of DMSO was added to all extracellular solutions. Drug applications were made with a microprocessor-controlled multibarrel fast-perfusion system. Changes in the glutamate-induced current in HEK293 cells transfected by GluN1/GluN2B subunits were used to estimate the rate of solution exchange around the cell. Standard ECS was switched to the ECS diluted by water (50%) during glutamate application. The osmolarity was adjusted by sucrose to match the standard ECS. Glutamate (1 mM), glycine (10 μM) and pH was maintained constant in both solutions. […]
(§3) The IC50 was determined from a single dose of a steroid using the formula [drawing 1] where I is the relative degree of inhibition and [steroid] is the steroid concentration used. […]

GluN1ΔN/GluN2BΔN = biological target: T1, GluN1ΔN/GluN2BΔN (Rattus norvegicus, UniProt P35439+Q00960, DEL32-386); assay: Whole-cell patch-clamp of N-terminal truncated NMDARs in HEK293 cells; conditions: 1 mM glutamate, PA-S 50 µM
T1 construct: expressed in transfected cells; host or cells: HEK293
Source text: Human embryonic kidney (HEK293) cells were transfected with expression vectors containing: GluN1–1a (GenBank accession number U08261)[52]; GluN2B (GenBank accession number M91562); GluN1-4a(F484A), (generous gift from Dr. J. J. Woodward)[53] (Smothers & Woodward, 2009); GluN3A (generous gift from Dr. S. A. Lipton)[54] (GenBank accession number NM_138546); GluN1ΔN with deleted 354 amino acids in the NTD (32 to 386); GluN1ΔC with an introduced stop codon in 838 of the CTD GluN2BΔN) with deleted 354 amino acids in the NTD (32 to 386); GluN2BΔC with an introduced stop codon in 844 of the CTD[55]; GluR0 (GenBank accession number Synechocystis PCC 6803) (generous gift from Dr. M. L. Mayer)[18]; and green fluorescent protein (GFP) (pQBI 25, Takara, Tokyo, Japan) genes, as described previously. The Quick-Change site-directed mutagenesis kit (Agilent Technologies, Santa Clara, CA, USA) was used to generate specific point mutations in the M1/M3 region according to the manufacturer’s instructions using manually designed primers purchased from Sigma. Modified DNA plasmids were transformed into competent XL10-Gold E.coli cells, positive clones were selected, and isolated DNA was sequenced. […]
as §3

GluN1/GluN2B receptors = biological target: T2, GluN1/GluN2B receptors (Rattus norvegicus, UniProt P35439+Q00960); assay: Whole-cell patch-clamp of GluN1/GluN2B receptor responses in transfected HEK293 cells
T2 construct: expressed in transfected cells; host or cells: HEK293
T2 sequence (Q00960 27-1482, other chains not shown): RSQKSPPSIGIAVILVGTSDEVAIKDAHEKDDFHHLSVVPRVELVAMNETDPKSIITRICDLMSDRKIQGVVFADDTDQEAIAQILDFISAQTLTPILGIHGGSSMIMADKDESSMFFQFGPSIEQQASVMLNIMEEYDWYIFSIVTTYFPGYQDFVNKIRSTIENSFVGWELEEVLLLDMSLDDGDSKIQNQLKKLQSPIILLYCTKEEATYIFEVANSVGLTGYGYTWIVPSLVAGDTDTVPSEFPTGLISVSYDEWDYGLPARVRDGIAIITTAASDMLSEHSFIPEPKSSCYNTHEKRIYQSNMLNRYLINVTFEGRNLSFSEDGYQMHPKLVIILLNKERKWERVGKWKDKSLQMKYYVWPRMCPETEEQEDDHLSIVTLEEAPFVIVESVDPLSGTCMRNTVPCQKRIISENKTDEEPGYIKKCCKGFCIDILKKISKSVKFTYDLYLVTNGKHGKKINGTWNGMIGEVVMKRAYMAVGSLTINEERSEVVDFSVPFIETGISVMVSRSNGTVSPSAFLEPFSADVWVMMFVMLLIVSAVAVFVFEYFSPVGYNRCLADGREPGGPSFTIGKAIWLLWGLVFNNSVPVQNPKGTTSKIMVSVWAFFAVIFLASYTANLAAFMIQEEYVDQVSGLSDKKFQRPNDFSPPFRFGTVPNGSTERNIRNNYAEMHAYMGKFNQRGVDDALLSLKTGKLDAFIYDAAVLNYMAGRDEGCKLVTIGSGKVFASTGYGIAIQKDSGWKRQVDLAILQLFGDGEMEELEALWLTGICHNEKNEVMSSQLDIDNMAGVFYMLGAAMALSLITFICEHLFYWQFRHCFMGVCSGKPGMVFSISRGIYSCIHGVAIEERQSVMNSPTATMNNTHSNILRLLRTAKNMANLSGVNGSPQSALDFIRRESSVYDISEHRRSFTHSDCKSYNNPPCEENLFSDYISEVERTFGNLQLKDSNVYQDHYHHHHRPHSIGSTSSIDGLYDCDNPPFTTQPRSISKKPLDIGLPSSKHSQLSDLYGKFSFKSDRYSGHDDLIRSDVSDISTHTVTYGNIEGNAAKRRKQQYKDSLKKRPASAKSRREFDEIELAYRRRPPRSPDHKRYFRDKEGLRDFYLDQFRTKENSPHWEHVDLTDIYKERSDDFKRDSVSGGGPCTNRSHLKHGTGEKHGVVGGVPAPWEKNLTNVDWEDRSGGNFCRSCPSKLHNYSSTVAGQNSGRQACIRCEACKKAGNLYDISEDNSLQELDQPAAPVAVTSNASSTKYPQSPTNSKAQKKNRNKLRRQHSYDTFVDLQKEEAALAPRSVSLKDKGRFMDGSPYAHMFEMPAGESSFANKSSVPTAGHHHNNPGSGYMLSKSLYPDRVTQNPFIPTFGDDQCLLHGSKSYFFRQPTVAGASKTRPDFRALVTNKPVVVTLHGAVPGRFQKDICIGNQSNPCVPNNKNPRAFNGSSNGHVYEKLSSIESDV
Source text: as §1, §2
(§4) Patch pipettes (3–5 MΩ) were filled with a solution containing (in mM): 120 gluconic acid, 15 CsCl, 10 BAPTA, 10 HEPES, 3 MgCl2, 1 CaCl2, and 2 ATP-Mg salt (pH-adjusted to 7.2 with CsOH). When GluR0 receptor responses were studied, intracellular solution contained (in mM): 120 gluconic acid, 15 KCl, 10 BAPTA, 10 HEPES, 3 MgCl2, 1 CaCl2, and 2 ATP-Mg salt (pH-adjusted to 7.2 with KOH). Extracellular solution (ECS) contained the following (in mM): 160 NaCl, 2.5 KCl, 10 HEPES, 10 glucose, 0.2 EDTA, and 0.7 CaCl2 (pH-adjusted to 7.3 with NaOH). Glycine (10 μM), an NMDAR co-agonist, was present in the control and test solutions. All (PA-S and PA-A) solutions were made from freshly prepared 20 mM PA-S and 5 mM PA-A stock in dimethyl sulfoxide (DMSO). The final dilution to ECS was made at 50 °C and followed by 1 min sonication (SONOREX DIGITEC DT 100/H, BADELIN electronic, Berlin, Germany). The same concentration of DMSO was added to all extracellular solutions. Drug applications were made with a microprocessor-controlled multibarrel fast-perfusion system. Changes in the glutamate-induced current in HEK293 cells transfected by GluN1/GluN2B subunits were used to estimate the rate of solution exchange around the cell. Standard ECS was switched to the ECS diluted by water (50%) during glutamate application. The osmolarity was adjusted by sucrose to match the standard ECS. Glutamate (1 mM), glycine (10 μM) and pH was maintained constant in both solutions. The solution exchange rate was estimated to be τ = 4.3 ± 0.3 ms (n = 6) for lifted cells and τ = 12.0 ± 0.9 ms (n = 6) for the attached cells.
Experiments were performed at room temperature (21–25 °C). Data were collected (low-pass filtered at 2 kHz and sampled at 10 kHz) and analyzed using pClamp 10 (Molecular Devices). Unless otherwise mentioned, error bars represent SEM; statistical comparison of groups was performed using Student’s t-test (p < 0.05 was used to determine the significance).
as §3

[2] = biological target: T3, GluN1(T648A)/GluN2B receptors (Rattus norvegicus, UniProt P35439+Q00960, T648A); assay: Whole-cell patch-clamp of GluN1(T648A)/GluN2B receptor responses in HEK293 cells; conditions: for inhibition at 200 µM: HEK293, PA-S 200 μM
T3 construct: expressed in transfected cells; host or cells: HEK293
T3 sequence (Q00960 27-1482, other chains not shown): as above
Source text: as §1, §2, §4
as §3, with “used. Calculations of IC50 were made assuming 100% inhibition at saturating steroid concentration this is valid for both PA-S and PA-A[12][13].” for “used.”

[3] = 150 μM PA-S co-applied with 1 mM glutamate, 10 μM glycine, attached HEK293 cells
[4] = lifted HEK293 cells, 150 μM PA-S co-application with glutamate
[5] = lifted HEK293 cells, 150 μM PA-S wash

CC(=O)[C@H]1CC[C@H]2[C@@H]3CC[C@@H]4C[C@H](OS(=O)(=O)O)CC[C@]4(C)[C@H]3CC[C@]12C [PA-S, 20-oxo-5β-pregnan-3α-yl sulfate]
difference of PA-S IC50 between GluN1(T648A)/GluN2B and GluN1/GluN2B(T647A) receptors [1]: 5.4 fold | change of PA-S IC50 relative to the WT receptor value ([1]; GluN1: F654A, GluN2B: P547A/S548A, F550A, L551A/E552A, F637A/F638A, Y646A, M654A, E657A/E658A): less than half | change of PA-S IC50 relative to the WT receptor value ([1]; GluN1: Y647A, T648A, A649T, N650A/L651A, V656A, GluN2B: S645A, T647A, A652T): over two-fold | IC50 ([1]; residues whose mutation decreased the IC50 by half (GluN1: F654A; GluN2B: P547A/S548A, F550A, L551A/E552A, F637A/F638A, Y646A, M654A, E657A/E658A)): < 21 µM | IC50 ([1]; residues whose mutation increased the IC50 more than two-fold (GluN1: Y647A, T648A, A649T, N650A/L651A, V656A; GluN2B: S645A, T647A, A652T)): > 84 µM | IC50 (GluN1ΔN/GluN2BΔN): 41 ± 2 µM | onset of response to glycine Af (GluN1/GluN2B receptors): 84 ± 5% | onset of response to glycine τf (GluN1/GluN2B receptors): 29 ± 3 ms | onset of response to glycine τs (GluN1/GluN2B receptors): 280 ± 72 ms | onset of inhibition Af (GluN1/GluN2B receptors; [3]): 75 ± 3% | onset of inhibition τf (GluN1/GluN2B receptors; [3]): 30 ± 2 ms | onset of inhibition τs (GluN1/GluN2B receptors; [3]): 579 ± 92 ms | recovery from inhibition (offset) τs (GluN1/GluN2B receptors; 150 μM PA-S, 1 mM glutamate, 10 μM glycine, attached HEK293 cells): 536 ± 79 ms | intercept of linear fit of mean inhibition versus holding potential (GluN1/GluN2B receptors; PA-S 200 µM, 1 mM glutamate, WT): 85.2 | voltage dependence of steroid inhibition (GluN1/GluN2B receptors; WT GluN1/GluN2B): voltage independent | mode of inhibition (GluN1/GluN2B receptors; dependence on receptor activation by agonists): use-dependent | time constant of the slow rate of recovery from inhibition (GluN1/GluN2B receptors; glutamate and steroid co-application for 30 s): 902 ± 201 ms | onset of the response to glutamate application (10–90%) (GluN1/GluN2B receptors; immediately after 30 s PA-S (150 μM) pre-application in the absence of glutamate): 18.4 ± 1.6 ms | onset of inhibition As (GluN1/GluN2B receptors; [4]): 20 ± 4% | onset of inhibition τf (GluN1/GluN2B receptors; [4]): 10.8 ± 2.2 ms | onset of inhibition τs (GluN1/GluN2B receptors; [4]): 480 ± 108 ms | off rate As (GluN1/GluN2B receptors; [5]): 65% and 41 ± 6% | off rate τf (GluN1/GluN2B receptors; [5]): 16 ms and 14.3 ± 1.7 ms | off rate τs (GluN1/GluN2B receptors; [5]): 367 ms and 311 ± 70 ms | IC50 [2]: 758 ± 27 µM | voltage dependence of steroid inhibition [2]: voltage independent | inhibition at 200 µM ([2]; read-out: degree of inhibition of agonist-evoked currents): 13.6 ± 0.9% | inhibition at 200 µM ([2]; read-out: degree of inhibition of spontaneous currents): 13.8 ± 0.7% | intercept of linear fit of mean inhibition versus holding potential ([2]; PA-S 200 µM, 1 mM glutamate): 15.8
